Measurements published in PubChem BioAssay (NCI).
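96-well plates; 48 h exposure; 5 concentrations. Endpoints by linear interpolation between flanking doses. Not reached: highest tested concentration assigned. The concentration for 50% growth inhibition is given as GI50. The concentration for full growth arrest is given as TGI.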 Where a SMILES comes first, the peptide text is derived from it. The star is where a group is joined. Boc = CC(C)(C)OC(=O)*; OBn = c1ccc(CO*)cc1; Bn = c1ccc(C*)cc1

Legend:
Assay in all cases: DTP human tumour cell line panel, 48 h
HOP-62 NSCLC = test system: HOP-62 NSCLC
K-562 leukemia = test system: K-562 leukemia
MALME-3M melanoma = test system: MALME-3M melanoma
NCI-H460 lung = test system: NCI-H460 lung
OVCAR-3 ovarian = test system: OVCAR-3 ovarian
OVCAR-5 ovarian = test system: OVCAR-5 ovarian
SF-268 CNS = test system: SF-268 CNS
SF-539 CNS = test system: SF-539 CNS
SK-MEL-28 melanoma = test system: SK-MEL-28 melanoma
SR leukemia = test system: SR leukemia

SMILES	TGI (HOP-62 NSCLC)	TGI (K-562 leukemia)	TGI (MALME-3M melanoma)	TGI (NCI-H460 lung)	TGI (OVCAR-3 ovarian)	TGI (OVCAR-5 ovarian)	TGI (SF-268 CNS)	TGI (SF-539 CNS)	TGI (SK-MEL-28 melanoma)	TGI (SR leukemia)	GI50 (HOP-62 NSCLC)	GI50 (K-562 leukemia)	GI50 (MALME-3M melanoma)	GI50 (NCI-H460 lung)	GI50 (OVCAR-3 ovarian)	GI50 (OVCAR-5 ovarian)	GI50 (SF-268 CNS)	GI50 (SF-539 CNS)	GI50 (SK-MEL-28 melanoma)
O=C1CCCn2c3ccccc3c3ccnc1c32	> 100 µM	> 100 µM	> 100 µM	> 100 µM	> 100 µM	> 100 µM	> 100 µM	> 100 µM	> 100 µM										
Nc1nc(-c2ccccc2)cc(-c2ccc(F)cc2)c1-c1ccc(Cl)cc1	> 100 µM	> 100 µM	> 100 µM	> 100 µM	> 100 µM	> 100 µM	> 100 µM		> 100 µM	> 100 µM									
CSCC[C@@H](NC(=O)[C@H](CC(C)C)NC(=O)C(Cc1cnc[nH]1)NC(=O)CNC(=O)[C@@H](NC(=O)[C@H](C)NC(=O)[C@H](Cc1cn(C=O)c2ccccc12)NC(=O)[C@H](CCC(N)=O)NC(=O)[C@@H](N)CC(N)=O)C(C)C)C(N)=O (stereo partly specified)	> 100 µM	> 100 µM	> 100 µM	> 100 µM	> 100 µM	> 100 µM	> 100 µM	> 100 µM	> 100 µM										
COc1cc(/C=C/C(=O)OC[C@]23O[C@H]2[C@@H](OC2OC(C)C(O)C(O)C2O)C2C=CO[C@@H](OC4OC(CO)C(O)C(O)C4O)C23)ccc1O (stereo partly specified)	> 100 µM	> 100 µM	> 100 µM	> 100 µM	> 100 µM	> 100 µM	> 100 µM		> 100 µM	> 100 µM									
NC1=CN2c3ccccc3N(CC(=O)N3CCOCC3)C2C=C1 (stereo unspecified)	> 100 µM	> 100 µM	> 100 µM	> 100 µM		> 100 µM	> 100 µM	> 100 µM	> 100 µM	> 100 µM									
O=C(CSCC(=O)N/N=C/c1ccc(F)cc1)N/N=C/c1ccc(F)cc1	> 100 µM	> 100 µM	> 100 µM	> 100 µM		> 100 µM	> 100 µM	> 100 µM	> 100 µM	> 100 µM									
O=C1OS2(OC(=O)c3cccc4cccc2c34)c2ccccc21 (stereo unspecified)	> 100 µM	> 100 µM	> 100 µM		> 100 µM	> 100 µM	> 100 µM	> 100 µM	> 100 µM										
c1ccc(C[P+]2(c3ccccc3)CCCCC2)cc1	> 100 µM	> 100 µM	> 100 µM	> 100 µM	> 100 µM	> 100 µM		> 100 µM	> 100 µM	> 100 µM									
COc1cc2[nH]c(=O)[nH]c2c2c(C)c[nH]c12	> 100 µM	> 100 µM	> 100 µM	> 100 µM	> 100 µM	> 100 µM	> 100 µM		> 100 µM	> 100 µM									
C=CCn1c(-c2ccc(N=NNc3ccc(-c4n[nH]c(=S)n4CC=C)cc3)cc2)n[nH]c1=S	14.8 µM	7.71 µM	> 100 µM			> 100 µM	21.5 µM		> 100 µM	> 100 µM									
C(=C/c1ccc2nc(-c3ccc(/C=C/C=N/NC4=NCCCN4)cc3)cn2c1)/C=N/NC1=NCCCN1	> 100 µM	79.9 µM		73.2 µM	> 100 µM	> 100 µM	54.7 µM	> 100 µM	> 100 µM	> 100 µM									
COC12OC3(C4OC41)C(C(=O)O[C@H]3CO[Si](C)(C)C(C)(C)C)C2S(=O)(=O)c1ccccc1 (stereo partly specified)	> 5.97 µM	5.03 µM	> 85.1 µM	> 100 µM	> 100 µM	> 12.2 µM		> 100 µM	> 5.53 µM	> 100 µM									
CN(C)CCNc1ccccn1	> 100 µM	> 100 µM	> 100 µM	> 100 µM	> 100 µM	> 100 µM	> 100 µM		> 100 µM	> 100 µM									
CC(C)CC(NC(=O)C(CCC(=O)OCc1ccccc1)NC(=O)OC(C)(C)C)C(=O)NC(COCc1ccccc1)C(=O)NC(Cc1ccccc1)C(=O)O (stereo unspecified) (Boc-E(OBn)LS(Bn)F-OH; configuration not given here)	> 100 µM	> 100 µM	> 100 µM	> 100 µM		> 100 µM			> 100 µM	> 100 µM									
O=c1[nH]c(=O)n(COCCO)cc1-c1ccccc1	> 100 µM	> 100 µM	> 100 µM	> 100 µM	> 100 µM	> 100 µM	> 100 µM		> 100 µM	> 100 µM									
Clc1ccc2nc3c(c(-c4ccccc4)nn3-c3ccccc3)c(-c3ccccc3)c2c1	> 100 µM	> 100 µM	> 100 µM	> 100 µM	> 100 µM	> 100 µM	> 100 µM		> 100 µM	> 100 µM									
O=C(/C=C/c1ccco1)c1ccc(Nc2ccnc3cc(Cl)ccc23)cc1	> 100 µM	> 100 µM	> 100 µM	> 100 µM	> 100 µM	> 100 µM	> 100 µM	> 100 µM	> 100 µM		> 100 µM	2.97 µM	> 100 µM	2.13 µM	4.73 µM	52 µM	> 100 µM	15 µM	74.9 µM
Oc1cccc(-c2cc(=S)ss2)c1	34.3 µM	60.6 µM	32.5 µM	32.8 µM		30.8 µM	32.6 µM	35 µM	43.8 µM	11.9 µM									
O=C(OCc1ccccc1[N+](=O)[O-])N1c2ccccc2[C@@]23O[C@]24CCC[C@H]3C#C/C=C\C#C[C@H]14		> 100 µM	> 100 µM	> 100 µM	> 100 µM	> 100 µM	> 100 µM	> 100 µM	> 100 µM										
CN(CCN(C)Cc1ccc(Cl)c(Cl)c1)CCN1CCCC1	> 100 µM	32.2 µM	35.8 µM	> 100 µM	> 100 µM	> 100 µM	> 100 µM	> 59.7 µM	20.3 µM										
COC(=O)c1ccc2c(c1)CC1(C2)Cc2ccc3c(c2C1)CCC3 (stereo unspecified)	93 µM	> 100 µM	60.5 µM		> 100 µM	> 100 µM	> 100 µM	> 100 µM	> 100 µM	> 100 µM									
O=C(O)C(C1NCCS1)N1Cc2ccccc2C1 (stereo unspecified)	> 100 µM	> 100 µM	> 100 µM	> 100 µM	> 100 µM	> 100 µM		> 100 µM	> 100 µM	> 100 µM									
